Source: article PMC11984924, “Dipeptidic Phosphonates: Potent Inhibitors of Pseudomonas aeruginosa Elastase B Showing Efficacy in a Murine Keratitis Model” (Advanced Science, 2025)
Where “and” joins values, the source holds several entries; their conditions need not be identical. Identical values can stand only once.

How the values were obtained:
[1] = molecular target: T1, LasB (Pseudomonas aeruginosa, UniProt Q02RJ6); experiment: In vitro LasB inhibition assay; assay type: biochemical; settings: IC50 LasB inhibition
T1 construct: made in house
T1 sequence (Q02RJ6 198-498): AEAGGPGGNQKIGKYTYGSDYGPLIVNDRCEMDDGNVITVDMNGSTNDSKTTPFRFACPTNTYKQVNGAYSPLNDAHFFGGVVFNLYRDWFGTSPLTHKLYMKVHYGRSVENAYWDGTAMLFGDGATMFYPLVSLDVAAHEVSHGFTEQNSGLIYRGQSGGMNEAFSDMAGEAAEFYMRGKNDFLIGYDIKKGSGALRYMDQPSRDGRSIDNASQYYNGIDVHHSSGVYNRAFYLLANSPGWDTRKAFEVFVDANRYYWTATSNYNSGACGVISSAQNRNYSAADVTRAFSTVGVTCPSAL
Procedure: (§1) 3.1 In vitro inhibition assays
LasB was expressed and purified as described previously.[3] In vitro inhibition assays (LasB,
MMPs, TACE). All in vitro inhibition assays were performed as described previously.[10] […]
Fluorescence signals were measured using a CLARIOstar plate reader (BMG
Labtech, Ortenberg, Germany). […]

[2] = molecular target: T2, MMP-3 (Homo sapiens, UniProt P08254); experiment: MMP-3 inhibition (off-target); assay type: biochemical; settings: read-out: MMP-3 % inhibition at 100 µM
T2 construct: purchased AnaSpec (Fremont, CA, USA)
T2 sequence (P08254 100-477): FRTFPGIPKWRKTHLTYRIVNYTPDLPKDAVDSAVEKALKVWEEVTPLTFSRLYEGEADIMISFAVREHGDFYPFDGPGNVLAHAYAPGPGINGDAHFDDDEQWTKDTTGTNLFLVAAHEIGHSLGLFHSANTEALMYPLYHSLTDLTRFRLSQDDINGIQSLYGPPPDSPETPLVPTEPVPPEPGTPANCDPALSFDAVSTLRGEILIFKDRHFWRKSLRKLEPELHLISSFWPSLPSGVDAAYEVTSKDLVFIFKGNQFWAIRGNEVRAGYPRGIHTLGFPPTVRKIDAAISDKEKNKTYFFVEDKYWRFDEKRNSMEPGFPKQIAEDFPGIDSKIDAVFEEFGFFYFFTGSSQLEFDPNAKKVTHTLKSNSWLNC
Procedure: as §1
LasB was expressed and purified as described previously.[3] In vitro inhibition assays (LasB, MMPs, TACE). All in vitro inhibition assays were performed as described previously.[10] TACE inhibitor screening kits were purchased from Sigma-Aldrich (Saint Louis, MO). MMPs along with the SensoLyte 520 Generic MMP Activity Kit Fluorimetric were purchased from AnaSpec (Fremont, CA, USA). The assays were performed according to the guidelines of the respective manufacturer. Fluorescence signals were measured using a CLARIOstar plate reader (BMG Labtech, Ortenberg, Germany). […]
3.8 Test against zinc metalloproteases MMP1–3 and TACE (ADAM17), and testing of
We selected a panel of human off -targets, including three human matrix metalloproteases (MMP-1, -2 and -3) and TACE (ADAM-17). These assays were performed as described previously.[3] The TACE inhibitor screening kit was purchased from Sigma -Aldrich (Saint Louis, MO). MMPs along with the SensoLyte 520 Generic MMP Activity Kit Fluorimetric were purchased from AnaSpec (Fremont, CA, USA). The assays were performed according to the guidelines of the respective manufacturer. Fluorescence signals were measured using a CLARIOstar plate reader (BMG Labtech, Ortenberg, Germany). […]
Table S6: Percent (%) inhibition of three MMPs (1 –3) and TACE (ADAM17) in presence of selected LasB inhibitors at 100 µM. Results are means and SD of at least two independent experiments. […]
(§2) Compound [% inhibition at [% inhibition at [% inhibition at [% inhibition at 100

[3] = Lipophilicity determination (HPLC-based LogD7.4); assay type: physicochemical; settings: C18 column; pH 7.4, HPLC-based
Procedure: 3.3 Lipophilicity determination
LogD7.4 was analyzed using an HPLC−based method. The UV retention time of reference compounds with known LogD7.4 was determined and plotted toward their LogD7.4. Linear regression was used to determine the LogD7.4 of unknown compounds. Analysis was performed using a Vanquish Flex HPLC system with variable wavelength detector (Thermo Fisher, Dreieich, Germany) with the following conditions: EC150/2 NUCLEODUR C18 Pyramid column, 5 μM (Macherey Nagel, Düren, Germany); eluent A: 50 mM NH4OAc pH 7.4, eluent B: acetonitrile, and flow: 0.6 mL/min.

[4] = tested on: sodium channel; experiment: SafetyScreen44: sodium channel binding; set-up: species or system human; settings: 100 µM
Source text: Moreover, we explored the safety profile of frontrunner (R)‐30 in more detail in order to detect additional crucial off‐target interactions. For this purpose, we employed the SafetyScreen44 in vitro panel comprising selected binding, inhibition and uptake assays.^[ [35] ^] The panel is a specialized pharmacological profiling tool that tests compounds against 44 key molecular targets, aiming to identify potential safety risks early in drug discovery. […]
The off-target Safety Screen44TM was performed by the CRO Eurofins Cerep SA (Celle-
L'Evescault, France) according to their protocols.[13] […]
MMP-1 MMP-2 MMP-3 TACE (ADAM17)
as §2

[5] = Stability in mouse liver microsomes; assay type: in vitro ADME; settings: read-out: Mouse Liver Microsomes t1/2
Procedure: Samples were stored on ice until the end of the incubation and precipitated protein was removed by centrifugation (15 min, 4 °C, 4,000 g). Concentration of the remaining test […]
compound at the different time points was analyzed by HPLC-MS/MS (TSQ Quantum Access […]
MAX, Thermo Fisher, Dreieich, Germany) and used to determine half -life (t1/2) and intrinsic […]
Species profiling was conducted as above using 0.5 mg/mL pooled mouse, rat or minipig liver microsomes (Xenotech, Kansas City, USA) with 2 mM NADPH and 10 mM MgCl2 and testosterone, verapamil and ketoconazole as reference compounds. […]
Thermo Fisher, Dreieich, Germany) and used to determine half-life (t1/2).
Table S2: Additional in vitro ADMET data for selected dipeptides. n.d.: not determined.
Kinetic Liver S9 Clint [µL/mg/min] Plasma t1/2 [min] LogD7.4 […]
pH 7.4 [µM] Mouse Human Mouse Human

Row | Compound | IC50 [1] | inhibition at 100 µM [2] | chromatographic logD [3] | sodium channel binding inhibition [4] | half-life at 1 µM [5]
1 | CC(C)CC(C(=O)N[C@H](C(=O)Nc1ccc(Cl)c(Cl)c1)C1CCC1)P(=O)(O)O (stereo partly shown) [compound 13] | 11.9 ± 0.3 nM | < 10% | -0.58 | – | –
2 | CC(C)CC(C(=O)N[C@H](C(=O)Nc1ccc(Cl)c(Cl)c1)C1CCCCC1)P(=O)(O)O (stereo partly shown) [compound 14] | 12.4 ± 0.3 nM | < 10% | 1.14 | – | –
3 | CC(C)CC(C(=O)N[C@H](C(=O)Nc1ccc(Cl)c(Cl)c1)C(C)C)P(=O)(O)O (stereo partly shown) [compound 9] | – | < 10% | – | – | –
4 | CC(C)C[C@H](C(=O)N[C@H](C(=O)Nc1ccc(-n2ccnc2)cc1)C(C)C)P(=O)(O)O [(R)‐36] | 10.9 ± 0.3 nM | < 10% | -0.67 | – | –
5 | CC(=O)c1ccc(NC(=O)[C@@H](NC(=O)[C@@H](CC(C)C)P(=O)(O)O)C(C)C)cc1 [(R)‐30] | 4 nM and 3.7 nM | < 10% | – | 91.1% | –
6 | CC(=O)c1ccc(NC(=O)[C@@H](NC(=O)C(CC(C)C)P(=O)(O)O)C(C)C)cc1 (stereo partly shown) [compound 30] | 5 ± 0.2 nM | < 10% | – | – | > 2 h
